{
  "source": "patent US20240016795A1",
  "about": "“BROMODOMAIN INHIBITORS FOR ANDROGEN RECEPTOR-DRIVEN CANCERS” (FORMA Therapeutics, Inc., priority 2020, published 2024)",
  "key": {"HCC1187": {"system": "HCC1187", "experiment": "10-day CellTiter-Glo antiproliferative assay, HCC1187", "type": "cell-based", "details": "Homo sapiens, HCC1187, 240 h, 10-day exposure, AR High, ER −, Her2 −", "method": "(§1) Breast cell lines were cultured according to the distributor's recommendations. The following day, cells were exposed to compounds up to 10 days. Cell viability was assessed using a CellTiter-Glo® assay (Promega) at the end of the incubation period. The growth inhibitory effect was assessed by the concentration inhibiting growth by 50% using a nonlinear regression equation and a variable slope (Graphpad Prism). The mRNA expression levels for the androgen receptor (HUGO: AR) was determined from the DepMap Portal database (release 19Q2)."}, "22Rv1": {"system": "22Rv1", "experiment": "10-day prostate cancer cell proliferation assay, 22Rv1", "type": "cell-based", "details": "Homo sapiens, 22Rv1, 240 h", "method": "(§2) Prostate cell lines were obtained from ATCC or DSMZ and cultured according to the distributor's recommendations. Prostate cancer cells were plated and incubated overnight. […] Cell viability was assessed using a CellTiter-Glo® assay (Promega) after 10 days drug exposure. The growth inhibitory effect was assessed by the concentration inhibiting growth by 50% using a nonlinear regression equation and a variable slope (Graphpad Prism)."}, "H3K27Ac [1]": {"system": "H3K27Ac", "experiment": "H3K27Ac western blot in MDA-MB-453 cells", "type": "cell-based", "details": "MDA-MB-453, 24 hrs, western blot", "method": "H3K27Ac is a specific mark of CBP/p300 activity and thus offers a means to directly assess the impact of CBP/p300 inhibition in cells.\nMDA-MB-453 cells were plated overnight and exposed to the compounds for 24 hours. Lysates were prepared from the cells in E-PAGE loading buffer (Invitrogen) and analyzed by western blot with antibodies diluted 1:1000 for anti-H3K27Ac, 1:2000 for anti-total H3 and 1:10,000 for anti-β actin. The blots were scanned and analyzed on a LI-COR Odyssey image analyzer. H3K27Ac levels were normalized to β-Actin.\nFinally, a washout experiments was carried out with compound 4 to assess the recovery of the biomarker after removal of the compound. […] Lysates were prepared and analyzed by western blot, as described above."}, "BT549": {"system": "BT549", "experiment": "10-day CellTiter-Glo antiproliferative assay, BT549", "type": "cell-based", "details": "Homo sapiens, BT-549, 240 h, 10-day exposure, AR Low, ER −, Her2 −", "method": "as §1"}, "SORD": {"system": "SORD", "experiment": "qPCR gene expression in 22Rv1, SORD", "type": "cell-based", "details": "Homo sapiens, 22Rv1, 24 h", "method": "(§3) RNA was extracted using Qiacube RNAeasy Mini (Qiagen). For all genes tested, the qPCR reactions were carried out in triplicate with 250 ng RNA per reaction and Taqman® primer-probes. GAPDH was used as a housekeeping gene."}, "KLK3": {"system": "KLK3", "experiment": "qPCR gene expression in AR-v7+ prostate cancer cells, KLK3", "type": "cell-based", "details": "24 h", "method": "(§4) AR-v7+ prostate cancer cells were exposed to compounds 1, 2, 3, or 4 for 24 h. RNA was extracted and gene expression was measured by qPCR using Taqman® primer-probes. GAPDH was used as a housekeeping gene."}, "CAL148": {"system": "CAL148", "experiment": "10-day CellTiter-Glo antiproliferative assay, CAL148", "type": "cell-based", "details": "Homo sapiens, CAL-148, 240 h, 10-day exposure, AR Low, ER −, Her2 −", "method": "as §1"}, "p300 bromodomain": {"target": "p300 bromodomain (Homo sapiens (Human), UniProt Q09472)", "sequence (Q09472 1049-1156)": "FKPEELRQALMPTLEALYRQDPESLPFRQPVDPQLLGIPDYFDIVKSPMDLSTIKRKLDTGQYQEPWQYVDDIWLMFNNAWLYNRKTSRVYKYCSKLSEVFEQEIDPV", "experiment": "Time-resolved fluorescence biochemical assay, p300", "type": "binding", "details": "GST fusion of the p300 bromodomain", "description": "Data is fitted using the Levenburg Marquardt algorithm. […] Data is fitted using the Levenburg Marquardt algorithm."}, "HCC1500": {"system": "HCC1500", "experiment": "10-day CellTiter-Glo antiproliferative assay, HCC1500", "type": "cell-based", "details": "HCC1500, 240 h, 10-day exposure, AR High, ER +, Her2 −", "method": "as §1"}, "DU 145": {"system": "DU 145", "experiment": "10-day prostate cancer cell proliferation assay, DU 145", "type": "cell-based", "details": "Homo sapiens, DU-145, 240 h; 10 days exposure; AR negative", "method": "as §2"}, "MYC": {"system": "MYC", "experiment": "qPCR gene expression in AR-v7+ prostate cancer cells, MYC", "type": "cell-based", "details": "24 h", "method": "as §4"}, "FKBP5": {"system": "FKBP5", "experiment": "qPCR gene expression in VCaP, FKBP5", "type": "cell-based", "details": "Homo sapiens, 24 h", "method": "as §3"}, "VCaP": {"system": "VCaP", "experiment": "10-day prostate cancer cell proliferation assay, VCaP", "type": "cell-based", "details": "Homo sapiens, VCaP, 240 h; 10 days exposure; WT, AR amplification, androgen-dependent", "method": "as §2"}, "CAMA1": {"system": "CAMA1", "experiment": "10-day CellTiter-Glo antiproliferative assay, CAMA1", "type": "cell-based", "details": "Homo sapiens, CAMA-1, 240 h, 10-day exposure, AR High, ER +, Her2 −", "method": "as §1"}, "MDA-MB-231": {"system": "MDA-MB-231", "experiment": "10-day CellTiter-Glo antiproliferative assay, MDA-MB-231", "type": "cell-based", "details": "Homo sapiens, MDA-MB-231, 240 h, 10-day exposure, AR Low, ER −, Her2 −", "method": "as §1"}, "MDA-MB-453": {"system": "MDA-MB-453", "experiment": "10-day CellTiter-Glo antiproliferative assay, MDA-MB-453", "type": "cell-based", "details": "Homo sapiens, MDA-MB-453, 240 h; 10-day exposure, CellTiter-Glo; AR High, ER −, Her2 +/−; read-out: IC50 (μM), MDA-MB-453", "method": "as §1"}, "H3K27Ac [2]": {"system": "H3K27Ac", "experiment": "H3K27Ac western blot in a prostate cancer cell line", "type": "cell-based"}},
  "note": "Several values for one entry are separate records, joined by “and”; a condition that tells them apart may be missing. Equal entries are not always repeated. Where two headings read alike, the source gives them in different places.",
  "data": [
    {"smiles": "COC(=O)N1c2ccc3c(nc([C@H](O)c4cc(F)ccc4OC)n3[C@@H]3CCC[C@@H](C(=O)O)C3)c2CC[C@@H]1C", "note": "[Compound 1, (1R,3R)-3-[(7S)-2-[(R)-(5-fluoro-2-methoxyphenyl)(hydroxy)methyl]-6-(methoxycarbonyl)-7-methyl-3H,6H,7H,8H,9H-imidazo[4,5-f]quinolin-3-yl]cyclohexane-1-carboxylic acid]", "values": [
      {"measurement": "IC50", "setting": "HCC1187", "value": "0.2 to 0.5", "unit": "µM"},
      {"measurement": "IC50", "setting": "22Rv1; 10-day assay, read-out: anti-proliferative effect (IC50), 22Rv1", "value": "500 to 1000", "unit": "nM"},
      {"measurement": "IC50", "setting": "22Rv1; 10 days exposure, H857Y/H857Y, AR v7+, androgen-independent, read-out: IC50, 22Rv1", "value": "500 to 1000", "unit": "nM"},
      {"measurement": "H3K27Ac level", "setting": "H3K27Ac [1]", "value": "concentration dependent reduction"},
      {"measurement": "IC50", "setting": "BT549", "value": "> 1", "unit": "µM"},
      {"measurement": "IC50", "setting": "SORD", "value": "> 0.1", "unit": "µM"},
      {"measurement": "IC50", "setting": "KLK3", "value": "10 to 50", "unit": "nM"},
      {"measurement": "IC50", "setting": "CAL148", "value": "> 1", "unit": "µM"},
      {"measurement": "IC50", "setting": "p300 bromodomain", "value": "< 2 nM and ~1 nM"},
      {"measurement": "IC50", "setting": "HCC1500", "value": "0.5 to 1", "unit": "µM"},
      {"measurement": "IC50", "setting": "DU 145", "value": "> 1000", "unit": "nM"},
      {"measurement": "IC50", "setting": "MYC", "value": "> 100", "unit": "nM"},
      {"measurement": "IC50", "setting": "FKBP5", "value": "> 0.1", "unit": "µM"},
      {"measurement": "IC50", "setting": "VCaP", "value": "500 to 1000", "unit": "nM"},
      {"measurement": "IC50", "setting": "CAMA1", "value": "< 0.2", "unit": "µM"},
      {"measurement": "IC50", "setting": "MDA-MB-231", "value": "> 1", "unit": "µM"},
      {"measurement": "IC50", "setting": "MDA-MB-453", "value": "< 0.2", "unit": "µM"},
      {"measurement": "H3K27Ac level", "setting": "H3K27Ac [2]", "value": "reduces H3K27Ac in a concentration-dependent manner"}
    ]}
  ]
}
